# Results taken from ChEMBL document CHEMBL1201862, “PubChem BioAssay data set” (2004).
# Values joined by “and” are separate entries in the source; they are usually repeats but may differ in a detail not shown here. Equal values may be shown once. Active and inactive are the calls of the source.
# Assays:
# cells = type: functional, cell-based; conditions: HEK-CNG
# Galanin receptor type 3 = Galanin receptor type 3 (Homo sapiens, UniProt O60755); assay: Fluorescence-based cell-based primary high throughput dose response assay to identify antagonists of the Galanin Receptor 3 (GalR3).; type: functional
# Sequence of Galanin receptor type 3 (O60755 whole entry): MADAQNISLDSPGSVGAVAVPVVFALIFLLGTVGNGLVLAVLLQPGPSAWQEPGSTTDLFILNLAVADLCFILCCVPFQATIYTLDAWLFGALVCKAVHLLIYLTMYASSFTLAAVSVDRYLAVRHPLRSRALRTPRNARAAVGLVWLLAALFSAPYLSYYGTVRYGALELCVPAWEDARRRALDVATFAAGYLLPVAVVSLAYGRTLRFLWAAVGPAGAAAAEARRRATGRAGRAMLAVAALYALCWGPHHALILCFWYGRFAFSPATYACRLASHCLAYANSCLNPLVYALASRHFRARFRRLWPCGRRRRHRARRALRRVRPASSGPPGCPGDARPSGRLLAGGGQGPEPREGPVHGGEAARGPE
# [1] = target: T1, Matrix metalloproteinase-14 (Homo sapiens, UniProt P50281); assay: SAR confirmation of uHTS hits for a small molecule inhibitors of MT1-MMP activation in a fluorescence assay.; type: functional
# [2] = target: T1, Matrix metalloproteinase-14; assay: Dose Response confirmation of uHTS hits for a small molecule inhibitors of MT1-MMP activation in a fluorescence assay set 1.; type: functional
# [3] = Counterscreen for […] of the human trace amine associated receptor 1 (TAAR1): Fluorescence-based cell-based high throughput dose response assay to identify nonselective Ga16 agonists.; type: functional
# [4] = target: T2, Trace amine-associated receptor 1 (Homo sapiens, UniProt Q96RJ0); assay: Counterscreen for antagonists of the human trace amine associated receptor 1 (hTAAR1): Fluorescence-based cell-based high throughput dose response assay to identify TAAR1 Agonists.; type: functional
# T2 sequence (Q96RJ0 whole entry): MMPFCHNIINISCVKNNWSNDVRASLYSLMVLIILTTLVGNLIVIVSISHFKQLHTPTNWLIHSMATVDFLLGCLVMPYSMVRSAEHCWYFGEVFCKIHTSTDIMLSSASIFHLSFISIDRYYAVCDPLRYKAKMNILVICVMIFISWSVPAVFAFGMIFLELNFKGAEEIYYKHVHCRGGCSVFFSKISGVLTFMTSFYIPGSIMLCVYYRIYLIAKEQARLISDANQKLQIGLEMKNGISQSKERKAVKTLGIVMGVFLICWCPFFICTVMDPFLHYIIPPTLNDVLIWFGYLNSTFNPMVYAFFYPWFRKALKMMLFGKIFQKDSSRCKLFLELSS
# [5] = target: T2, Trace amine-associated receptor 1; assay: Fluorescence-based cell-based high throughput dose response assay to identify antagonists of the human trace amine associated receptor 1 (TAAR1).; type: functional
# [6] = Counterscreen for antagonists of the human trace amine associated receptor 1 (hTAAR1): Fluorescence-based cell-based high throughput dose response assay to identify nonselective Ga16 antagonists.; type: functional
# Lethal factor = Lethal factor (Bacillus anthracis, UniProt P15917); assay: High-throughput multiplex microsphere dose response for inhibitors of toxin protease, specifically Lethal Factor protease, compounds from Cherry Pick 02.; type: functional; conditions: read-out: EC50_MICROM
# Sequence of Lethal factor (P15917 whole entry): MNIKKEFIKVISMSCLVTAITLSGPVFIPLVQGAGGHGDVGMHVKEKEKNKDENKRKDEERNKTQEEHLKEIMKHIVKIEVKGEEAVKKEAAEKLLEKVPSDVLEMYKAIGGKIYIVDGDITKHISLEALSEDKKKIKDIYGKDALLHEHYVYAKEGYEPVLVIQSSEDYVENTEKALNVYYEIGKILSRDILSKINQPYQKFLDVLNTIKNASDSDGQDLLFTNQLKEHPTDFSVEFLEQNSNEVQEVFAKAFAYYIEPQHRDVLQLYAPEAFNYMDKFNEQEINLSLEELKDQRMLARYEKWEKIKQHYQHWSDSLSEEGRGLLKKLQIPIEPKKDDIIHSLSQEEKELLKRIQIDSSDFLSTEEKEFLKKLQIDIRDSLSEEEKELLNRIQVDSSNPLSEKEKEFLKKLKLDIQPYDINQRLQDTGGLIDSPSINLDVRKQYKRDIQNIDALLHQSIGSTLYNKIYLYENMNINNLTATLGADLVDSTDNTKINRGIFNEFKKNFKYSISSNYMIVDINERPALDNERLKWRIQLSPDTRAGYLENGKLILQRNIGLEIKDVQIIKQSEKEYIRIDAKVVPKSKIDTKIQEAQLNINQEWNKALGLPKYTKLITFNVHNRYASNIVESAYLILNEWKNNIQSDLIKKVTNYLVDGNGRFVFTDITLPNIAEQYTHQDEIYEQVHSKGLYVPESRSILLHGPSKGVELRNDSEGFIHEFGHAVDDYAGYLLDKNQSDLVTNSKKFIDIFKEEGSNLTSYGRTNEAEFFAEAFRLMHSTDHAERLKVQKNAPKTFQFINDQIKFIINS
# [7] = target: Botulinum neurotoxin type F (Clostridium botulinum, UniProt P30996); assay: High-throughput multiplex microsphere dose response for inhibitors of toxin protease, specifically Botulinum neurotoxin light chain F protease, compounds from Cherry Pick 02.; type: functional; conditions: read-out: EC50_MICROM
# Sequence of Botulinum neurotoxin type F (P30996 1-436 limits assumed): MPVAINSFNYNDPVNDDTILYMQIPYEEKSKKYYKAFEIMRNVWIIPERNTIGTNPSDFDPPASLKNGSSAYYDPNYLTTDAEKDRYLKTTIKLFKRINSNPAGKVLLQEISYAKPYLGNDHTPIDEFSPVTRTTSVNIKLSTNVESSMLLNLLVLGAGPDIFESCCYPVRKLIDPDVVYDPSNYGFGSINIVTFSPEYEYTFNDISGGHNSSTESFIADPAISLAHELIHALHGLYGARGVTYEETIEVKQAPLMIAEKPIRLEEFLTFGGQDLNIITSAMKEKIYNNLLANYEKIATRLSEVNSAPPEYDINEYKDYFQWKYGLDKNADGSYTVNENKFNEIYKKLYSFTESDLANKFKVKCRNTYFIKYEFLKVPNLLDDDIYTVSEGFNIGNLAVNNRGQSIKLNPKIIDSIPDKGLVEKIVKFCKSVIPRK
# [8] = target: Long-chain-fatty-acid--AMP ligase FadD28 (Mycobacterium tuberculosis, UniProt P9WQ59); assay: Fluorescence polarization aasay to screen for inhibitors that compete for the binding of FadD28 to a bisubstrate Measured in Biochemical System Using Plate Reader - 2147-01_Inhibitor_Dose_CherryPick_Activity.; type: functional, Mycobacterium tuberculosis H37Rv
# Sequence of Long-chain-fatty-acid--AMP ligase FadD28 (P9WQ59 whole entry): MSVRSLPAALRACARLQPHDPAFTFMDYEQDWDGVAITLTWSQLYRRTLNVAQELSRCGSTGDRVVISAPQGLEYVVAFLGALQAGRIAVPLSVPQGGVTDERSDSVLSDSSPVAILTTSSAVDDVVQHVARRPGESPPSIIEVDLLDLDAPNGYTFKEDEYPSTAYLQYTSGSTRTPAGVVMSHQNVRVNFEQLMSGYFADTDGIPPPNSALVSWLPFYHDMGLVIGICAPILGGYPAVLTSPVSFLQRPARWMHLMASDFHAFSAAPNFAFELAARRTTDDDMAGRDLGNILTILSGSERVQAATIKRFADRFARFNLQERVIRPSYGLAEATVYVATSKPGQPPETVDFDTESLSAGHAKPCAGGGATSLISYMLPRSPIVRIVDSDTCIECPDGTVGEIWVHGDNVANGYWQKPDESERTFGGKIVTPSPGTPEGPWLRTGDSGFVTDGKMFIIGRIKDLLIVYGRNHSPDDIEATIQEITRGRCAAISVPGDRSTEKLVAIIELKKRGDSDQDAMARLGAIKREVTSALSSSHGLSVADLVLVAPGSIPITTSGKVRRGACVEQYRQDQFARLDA
# [9] = reduced cellular PGC1a acetyl-lysine signal – cell-based, cherry-picked samples, dose response (AID 720514); type: functional;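 further: potency may reflect raised or lowered acetylation signal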
# [10] = target: NAD-dependent protein deacylase sirtuin-5, mitochondrial (Homo sapiens, UniProt Q9NXA8); assay: blockers of sirtuin-5 peptide desuccinylation – biochemical, fluorescence imaging, cherry-pick, set 6, dose response (AID 720597)
# Sequence of NAD-dependent protein deacylase sirtuin-5, mitochondrial (Q9NXA8 whole entry): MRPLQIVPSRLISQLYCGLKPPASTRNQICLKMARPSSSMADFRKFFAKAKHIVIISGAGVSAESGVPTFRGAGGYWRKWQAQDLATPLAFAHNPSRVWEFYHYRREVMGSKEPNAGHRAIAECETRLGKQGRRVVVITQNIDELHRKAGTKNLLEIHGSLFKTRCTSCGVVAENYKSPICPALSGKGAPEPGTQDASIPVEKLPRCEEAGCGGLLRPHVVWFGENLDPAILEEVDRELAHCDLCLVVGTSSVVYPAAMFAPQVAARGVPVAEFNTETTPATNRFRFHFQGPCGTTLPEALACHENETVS
# [11] = activation of miR-122 Renilla sensor silencing – cell-based, Huh7 psiCHECK-miR122, Renilla luciferase, cherry-picked, dose response (AID 651956); type: functional;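 further: huh7 hepatoma cells stably carrying a psiCHECK-2 miR-122 sensor plasmid; renilla luciferase signal reporting endogenous miR-122 activity after 48 h compound exposure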
# [12] = Luminescence Cell-Based Dose Retest to Confirm Inhibitors of Cancer Stem Cells. [Related pubchem assays (depositor defined):AID2717, AID2721]; type: functional; conditions: Homo sapiens
# INS1 = assay: INS-1E survival protection against cytokine death – cell-based, luminescence, retest, dose response (AID 449756); type: functional; conditions: Rattus norvegicus;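 further: cell death triggered by IL-1 beta plus TNF-alpha plus IFN-gamma mixture; protective hits raise ATP signal compared with cytokine alone wells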
# [13] = viability loss in HEK293T cells – cell-based, cherry-picks, cytotoxicity control for HIV Vif inhibitor project, dose response (AID 652208); type: functional
# [14] = general mammalian cell viability loss – activator set, cherry-pick, cytotoxicity control for miR-122 modulator project, dose response (AID 720690); type: functional, cell-based;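 further: HEK293T human cells scored for general mammalian cytotoxicity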
# [15] = target: T3, Microphthalmia-associated transcription factor (Homo sapiens, UniProt O75030); assay: reducers of TRPM1 reporter luminescence, concentration series – cell-based, SK-MEL-5, cherry-picked, set 3, MITF inhibitor project, dose response (AID 493073); type: functional;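 further: SK-MEL-5 melanoma cells with luciferase driven by the MITF target TRPM1 promoter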
# T3 sequence (O75030 whole entry): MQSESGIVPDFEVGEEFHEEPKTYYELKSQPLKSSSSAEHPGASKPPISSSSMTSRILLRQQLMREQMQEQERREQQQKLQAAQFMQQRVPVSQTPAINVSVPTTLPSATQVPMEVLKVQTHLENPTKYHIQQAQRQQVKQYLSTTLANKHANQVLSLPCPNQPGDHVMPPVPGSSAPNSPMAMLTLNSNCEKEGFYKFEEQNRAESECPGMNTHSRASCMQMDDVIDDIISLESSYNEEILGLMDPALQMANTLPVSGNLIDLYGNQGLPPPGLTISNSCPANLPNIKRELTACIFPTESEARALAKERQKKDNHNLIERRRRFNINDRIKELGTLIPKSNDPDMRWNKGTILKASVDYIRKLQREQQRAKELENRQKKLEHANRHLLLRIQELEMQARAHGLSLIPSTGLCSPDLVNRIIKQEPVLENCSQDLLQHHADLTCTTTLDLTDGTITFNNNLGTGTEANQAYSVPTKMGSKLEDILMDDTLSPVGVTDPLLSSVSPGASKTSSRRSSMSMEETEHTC
# [16] = luciferase signal loss, tTA control fusion, HeLa F-luc tTA cells, dry powder, counter-screen for HIV Env fusion inhibitor project, dose response (AID 687021); type: functional, cell-based
# [17] = blockers of HIV-1 envelope-mediated cell-cell fusion – cherry-pick, dose response (AID 652057); type: functional, cell-based
# [18] = inhibition of Env-driven cell fusion – HIV entry, plate reader, dry powder, dose response (AID 687023); type: functional, cell-based
# [19] = off-target signal loss in HeLa-CEM21 co-culture – HeLa F-luc CTL cells, cherry-picked, counter-screen for HIV-1 Env fusion inhibitor project, dose response (AID 652040); type: functional, cell-based;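 further: potency for signal decrease marking cytotoxic or nonspecific inhibition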
# [20] = blockers of HIV-1 ZM109 envelope-driven cell-cell fusion – HeLa effector, CEM target cells, luciferase, cherry-pick, dose response (AID 652058); type: functional, cell-based;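 further: luciferase signal from HIV-1 Env mediated cell-cell fusion of effector and target cells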
# [21] = viability loss in CEM21 cells – cell-based, plate reader, dry powder, cytotoxicity control, dose response (AID 687026); type: functional
# [22] = HIV-1 AD8 envelope cell-cell fusion blockers – cherry-pick, dose response (AID 652062); type: functional, cell-based;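 further: luciferase signal from cell-cell fusion driven by HIV-1 clade B AD8 Env; potency is for inhibitors of fusion seen as a drop in luminescence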
smiles,measurement,setting,value
Cc1nn(C)c(Nc2ccc(Br)cc2)c1Br,EC50,cells,> 29.9 µM (inactive)
same,IC50,Galanin receptor type 3,0.155 µM (active)
COc1ccc(C)cc1Nc1nc(-c2c(C)[nH]c3ccccc23)cs1,IC50,[1],> 80 µM (inactive)
same,IC50,[2],22.1 µM (inactive)
COc1ccc(-c2cc(C(=O)NCC(C)C)no2)cc1,EC50,[3],> 29.9 µM (inactive)
same,EC50,[4],> 29.9 µM (inactive)
same,IC50,[5],> 29.9 µM (inactive)
same,IC50,[6],> 29.9 µM (inactive)
O=C(COC(=O)c1cncc(Br)c1)NC12CC3CC(CC(C3)C1)C2,EC50,Lethal factor,11.5 µM (active)
same,EC50,[7],> 20 µM (inactive)
O=C(CN1C(=O)NC2(CCOc3ccccc32)C1=O)c1ccc(Cl)cc1 (stereo unspecified),AC50,[8],47.9 µM (active)
Cc1cc(-c2ccc(Cl)cc2)n2ncnc2n1,AC50,[9],29.8 µM (active)
CCCNC(=O)N1[C@@H](CO)[C@H](c2ccccc2)C12CN(C(=O)CC1CC1)C2,AC50,[10],24.6 µM (active)
COc1ccc(-c2cc(-c3nc4ccccn4c3NCc3ccccc3)ccc2OC)cc1,AC50,[11],8.74 µM (active)
same,AC50,[12],5.24 µM (active)
same,AC50,INS1,1.33 µM (active)
same,AC50,[13],1.69 µM (active)
same,AC50,[14],3.12 µM (active)
Oc1ccc(CNc2ccccc2F)c2cccnc12,AC50,[15],15.1 µM (active)
same,AC50,[16],> 70 µM (inactive)
same,AC50,[17],5.19 µM (active)
same,AC50,[18],> 70 µM (inactive)
same,AC50,[19],36 µM (active)
same,AC50,[20],1.58 µM (active)
same,AC50,[21],50.8 µM (active) and 64.1 µM (active)
same,AC50,[22],9.33 µM (active)
